Legend:
mPGES-1 [1] = target: T1, mPGES-1 (Homo sapiens (Human), UniProt O14684); experiment: mPGES-1 enzyme assay (HTRF detection of PGE2); assay type: biochemical; conditions: recombinant human mPGES-1 microsomes, PGH2 2 μM; read-out: mPGES-1 inhibitory effect in the enzyme assay, IC50
Protocol: Microsomes from Rosetta E. coli bacteria expressing recombinant human mPGES-1 can be derived as described below:
Inoculate 5 ml LB with Ampicilin (50 μg/ml) and Chloramphenicol (34 μg/ml) with bacteria from freeze culture. Incubate 8 h at 37° C. with 200 rpm. Thereafter, inoculate 500-1000 ml LB containing Amp and Chloro with the 5 ml on culture and grow to OD640 of 0.8-1.0. Chill the culture to +4° C. before induction. Induce the culture with IPTG at a final concentration of 400 μM. Express the protein at room temp 18-23° C. with 200 rpm shaking over night.
The following steps can be performed on the following day: • 1. Spin down the cells in 250 ml centrifuge flasks for 15 min at 7000 rpm (Beckmann Coulte Avanti J-E centrifuge) • 2. Dissolve the pellet from 250 ml culture in 12.5 ml homogenization buffer • 3. (15 mM Tris-HCL pH8, 1 mM EDTA pH8, […], 2.5 mM GSH, 1 Tablet Protease inhibitor per 50 ml buffer) • 4. […] Add 2.5 ml MgCl2 (100 mM) and DNase 12.5 μl (0.8 mg/ml) and incubate on ice for 30 min • 6. Spin down the bacteria debris and save the supernatant, 7000 rpm for 15 min • 7. Isolate the protein containing membranes in the supernatant by ultracentrifugation 120000×g for 2 hour at 4° C. (Sorvall T880 rotor). • 8. Discard the supernatant and dissolve the pellet in 20 mM Potassium phosphate buffer pH7.4 (KH2PO4 and K2HPO4) buffer by sonication (5×10 s, 30% of a 50 W sonifier) and aliquot the enzyme and store aliquots at −80° C.
Before each experiment is performed an aliquot of the enzyme is thawed and it can then be dissolved in 0.1 M Potassium phosphate buffer pH7.4 (KH2PO4 and K2HPO4) buffer containing 2.5 mM GSH.
The aim of this assay is to determine the affinity of a test compound for the mPGES-1 enzyme.
47 μl of recombinant human mPGES-1 (˜0.5 μg protein/well) containing microsomal suspension in a buffer containing GSH, (2.5 mmol/L L-Glutathione reduced, dissolved in 0.1 mol/L Phosphat Buffer pH 7.4) is dispensed in a 384-well plate and thereafter 1 μl of the test compound(s) is/are added and incubated for 25 minutes at room temperature. The enzyme reaction is started by the addition of 2 ul PGH2 (final conc. 2 μM) dissolved in water-free Diglyme. After 60 seconds the reaction is terminated by addition of a stop solution containing FeCl2 (10 μL 0.074 mol/l FeCl2). The samples are diluted between 1:25 in PBS (Phosphate Buffered Saline). 10 μl of the diluted samples are transferred to 384-well low volume plate. In order to quantify the amount of PGE2 that has been formed, a homogenous time resolved fluorescent (HTRF) detecting of PGE2 has been performed using a commercially available kit from Cisbio according to the manufactures recommendation. […] Briefly, the diluted samples are mixed with 5 μl PGE2-d2 conjungate and 5 μl anti-PGE2 cryptate conjungate. After an incubation period of the plates over night, the fluorescence is measured by the use of an appropriate microplate reader.
The quantification plate contains also wells with different concentrations of PGE2 as calibration curve for the calculation of the PGE2 concentrations from the HTRF ratio values.
From all mPGES enzyme assay the background is subtracted and the IC50 is calculated over a nonlinear regression with conventional software.

mPGES-1 [2] = target: T1, mPGES-1; experiment: A549 cell-based assay (PGE2 formation, IL-1β stimulated, 50% human serum); conditions: A549 cells
Protocol: Although the enzymatic assay is a high throughput assay the disadvantage is that it uses a recombinant protein which is not in its natural environment. Accordingly a cellular assay was established in which a cell line of human origin (A549) expressing the mPGES-1 protein was used. In addition in order to mimic the situation in humans in which compounds can be bound to plasma proteins 50% human serum is added in the assay.
Cells were detached using Trypsin-EDTA. A549 cells were seeded in a 384-well collagene plate at a density of 7000 cells/well (50 μl) in F-12 medium containing 1% Penicillin-Streptomycin and 50% human serum. The cells were allowed to attach for 3-4 h. […] The total volume is 100 μl.
Concentrations of PGE2 in the cell free medium (10 μl) were measured using a commercially available HTRF kit from Cisbio (as described above). The PGE2 formation in the absence of test compound was taken as 100%.
IC50 values were derived from at 6-8 point titrations using conventional software.

[3] = IL-1β 5 ng/ml, read-out: mPGES-1 inhibitory effect in the cell assay, IC50

T1 sequence (O14684 whole entry): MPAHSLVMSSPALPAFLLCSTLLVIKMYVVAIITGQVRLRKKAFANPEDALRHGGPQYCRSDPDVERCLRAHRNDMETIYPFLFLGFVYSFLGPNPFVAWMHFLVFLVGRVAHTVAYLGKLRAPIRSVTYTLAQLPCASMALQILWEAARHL

| Structure (SMILES) | IC50 (mPGES-1 [1]) | IC50 (mPGES-1 [2]; [3]) | IC50 (mPGES-1 [2]; Table C comparison of selected benzimidazoles, read-out: Cell IC50) |
| --- | --- | --- | --- |
| Cn1c(Nc2c(F)ccc(CNC(=O)C(C)(C)C)c2F)nc2cc(C(=O)N[C@H]3CC[C@H](C(F)(F)F)CC3)c(F)cc21 [Example 10] | 7 nM | 4 nM |  |
| Cn1c(Nc2c(Cl)ccc(CNC(=O)C(C)(C)C)c2Cl)nc2cc(C(=O)Nc3cc(F)cc(Cl)c3)c(F)cc21 [Example 23] | 1 nM | < 1 nM |  |
| Cn1c(Nc2c(Cl)ccc(CNC(=O)C(C)(C)C)c2Cl)nc2cc(C(=O)Nc3ccc(C(F)(F)F)cn3)c(OCC(F)F)cc21 [Example 61] | 4 nM | < 1 nM |  |
| Cn1c(Nc2c(Cl)ccc(CNC(=O)OC(C)(C)C)c2Cl)nc2cc(C(=O)Nc3ccc(F)c(Cl)c3)c(OCC(F)F)cc21 [Example 15] | 3 nM | 11 nM |  |
| Cn1c(Nc2c(Cl)ccc(CNC(=O)N3CC(F)(F)C3)c2Cl)nc2cc(C(=O)N[C@H]3CC[C@H](C(F)(F)F)CC3)c(OCC(F)F)cc21 [Example 80, N-(trans-4-Trifluoromethyl-cyclohex-1-yl)-2-{2,6-dichloro-3-[(3,3-difluoro-azetidine-1-carbonylamino)-methyl]-phenylamino}-6-(2,2-difluoroethoxy)-1-methyl-1H-benzimidazole-5-carboxylic acid amide] | 1 nM | 7 nM |  |
| Cn1c(Nc2c(Cl)ccc(CNC(=O)C(C)(C)C)c2Cl)nc2cc(C(=O)Nc3cccc(Cl)c3F)c(OCC(F)F)cc21 [Example 73] | 2 nM | 1 nM |  |
| Cn1c(Nc2c(Cl)ccc(CNC(=O)C(C)(C)C)c2Cl)nc2cc(C(=O)NCc3ccccc3C(F)(F)F)c(OCC(F)F)cc21 [Example 35] | 4 nM | < 1 nM |  |
| Cn1c(Nc2c(F)ccc(CNC(=O)C(C)(C)C)c2F)nc2cc(C(=O)N[C@H]3CC[C@H](C(F)(F)F)CC3)c(OCC(F)F)cc21 [Example 25] | 2 nM | 9 nM |  |
| Cn1c(Nc2c(Cl)ccc(CNC(=O)C(C)(C)C)c2Cl)nc2cc(C(=O)NC3CC(F)(F)C3)c(F)cc21 [Example 20] | 3 nM | 14 nM |  |
| Cn1c(Nc2c(Cl)ccc(CNC(=O)C(C)(C)C)c2Cl)nc2cc(C(=O)NCC3CCCCC3)c(OCC(F)F)cc21 [Example 52] | 4 nM | < 1 nM |  |
| Cn1c(Nc2c(Cl)ccc(CNC(=O)C(C)(C)C)c2Cl)nc2cc(C(=O)NC[C@@H]3CCCO3)c(OCC(F)F)cc21 [Example 37] | 5 nM | 9 nM |  |
| Cn1c(Nc2c(Cl)ccc(CNC(=O)C(C)(C)C)c2Cl)nc2cc(C(=O)Nc3ccc4c(c3)CCC4)c(OCC(F)F)cc21 [Example 59] | 4 nM | < 1 nM |  |
| Cn1c(Nc2c(Cl)ccc(CNC(=O)OC(C)(C)C)c2Cl)nc2cc(C(=O)NCC(F)(F)F)c(OCC(F)F)cc21 [Example 16] | 5 nM | 106 nM |  |
| CC(C)(C)C(=O)NCc1ccc(Cl)c(Nc2nc3cc(C(=O)Nc4ccc(Br)cc4)c(OCC(F)F)cc3[nH]2)c1Cl [Example 4, N-(4-Bromo-phenyl)-2-{2,6-dichloro-3-[(2,2-dimethyl-propionylamino)-methyl]-phenylamino}-6-(2,2-difluoro-ethoxy)-1H-benzimidazole-5-carboxylic acid amide] | 4 nM | 2 nM |  |
| Cc1cc(Cl)cnc1NC(=O)c1cc2nc(Nc3c(Cl)ccc(CNC(=O)C(C)(C)C)c3Cl)n(C)c2cc1OCC(F)F [Example 63] | 3 nM | 1 nM |  |
| CC(C)(C)C(=O)NCc1ccc(F)c(Nc2nc3cc(C(=O)Nc4ccc(F)c(Cl)c4)c(F)cc3[nH]2)c1F [Example 24] | 3 nM |  |  |
| Cn1c(Nc2c(Cl)ccc(CNC(=O)C(C)(C)F)c2Cl)nc2cc(C(=O)Nc3ccc(F)c(Cl)c3)c(OCC(F)F)cc21 [Example 84, N-(3-Chloro-4-fluoro-phenyl)-2-{2,6-dichloro-3-[(2-fluoro-2-methyl-propionylamino)-methyl]-phenylamino}-6-(2,2-difluoroethoxy)-1-methyl-1H-benzimidazole-5-carboxylic acid amide] |  | < 1 nM |  |
| Cn1c(Nc2c(Cl)ccc(CNC(=O)C3CC(F)(F)C3)c2Cl)nc2cc(C(=O)NCC(F)(F)F)c(OCC(F)F)cc21 [Example 102] |  | 15 nM |  |

| Structure (SMILES) | IC50 (mPGES-1 [1]) | IC50 (mPGES-1 [2]; [3]) | IC50 (mPGES-1 [2]; Table C comparison of selected benzimidazoles, read-out: Cell IC50) |
| --- | --- | --- | --- |
| Cn1c(Nc2c(Cl)ccc(CNC(=O)C(N)C(F)(F)F)c2Cl)nc2cc(C(=O)Nc3ccc(F)c(Cl)c3)c(OCC(F)F)cc21 (centres unmarked) [Example 164] |  | 15 nM |  |
| Cn1c(Nc2c(Cl)ccc(CNC(=O)CC(F)(F)F)c2Cl)nc2cc(C(=O)Nc3ccc(F)c(Cl)c3)c(OCC(F)F)cc21 [Example 131] |  | 1 nM |  |
| Cn1c(Nc2c(Cl)ccc(CNC(=O)C3CC3(F)F)c2Cl)nc2cc(C(=O)Nc3ccc(F)c(Cl)c3)c(OCC(F)F)cc21 (centres unmarked) [Example 153] |  | 3 nM |  |
| Cn1c(Nc2c(Cl)ccc(CNC(=O)C3CCCO3)c2Cl)nc2cc(C(=O)Nc3ccc(F)c(Cl)c3)c(OCC(F)F)cc21 (centres unmarked) [Example 137] |  | 4 nM |  |
| CC(C)(C)C(=O)NCc1ccc(F)c(Nc2nc3cc(C(=O)Nc4ccc(Br)cc4)c(OCC(F)F)cc3n2C2CC2)c1F [Example 11] |  | 4 nM |  |
| Cn1c(Nc2c(Cl)ccc(CNC(=O)c3ccc(Cl)s3)c2Cl)nc2cc(C(=O)NCC(F)(F)F)c(OCC(F)F)cc21 [Example 92] |  | 9 nM |  |
| Cn1c(Nc2c(Cl)ccc(CNC(=O)C3(O)CC3)c2Cl)nc2cc(C(=O)Nc3ccc(F)c(Cl)c3)c(OCC(F)F)cc21 [Example 171] |  | 4 nM |  |
| Cn1c(Nc2cc(CNC(=O)C(C)(C)C)ccc2Cl)nc2cc(C(=O)NCC3CC3)c(OCC(F)F)cc21 [[drawing 49] of PCT/EP2010/052799, reference compound] |  |  | > 200 nM |
| Cn1c(Nc2c(Cl)ccc(CNC(=O)C(C)(F)F)c2Cl)nc2cc(C(=O)NCC(F)(F)F)c(OCC(F)F)cc21 [Example 95] |  | 13 nM |  |
| Cn1c(Nc2c(Cl)ccc(CNC(=O)c3cc[nH]n3)c2Cl)nc2cc(C(=O)NCC(F)(F)F)c(OCC(F)F)cc21 [Example 127] |  | 85 nM |  |
| Cn1c(Nc2c(Cl)ccc(CNC(=O)C3(C)CC3)c2Cl)nc2cc(C(=O)NCC(F)(F)F)c(OCC(F)F)cc21 [Example 103] |  | 18 nM |  |
| Cn1c(Nc2c(Cl)ccc(CNC(=O)C(C)(O)C(F)(F)F)c2Cl)nc2cc(C(=O)Nc3ccc(F)c(Cl)c3)c(OCC(F)F)cc21 (centres unmarked) [Example 149] |  | 1 nM |  |
| CC(=O)NCc1ccc(Cl)c(Nc2nc3cc(C(=O)NCC(F)(F)F)c(OCC(F)F)cc3n2C)c1Cl [Example 115] |  | 300 nM |  |
| Cn1c(Nc2c(Cl)ccc(CNC(=O)C(N)C(F)(F)F)c2Cl)nc2cc(C(=O)NCC(F)(F)F)c(OCC(F)F)cc21 (centres unmarked) [Example 87] |  | 221 nM |  |
| Cn1c(Nc2c(Cl)ccc(CNC(=O)C3(C)CC3)c2Cl)nc2cc(C(=O)Nc3ccc(F)c(Cl)c3)c(OCC(F)F)cc21 [Example 133] |  | 1 nM |  |
| Cn1c(Nc2c(Cl)ccc(CNC(=O)C3CCC3)c2Cl)nc2cc(C(=O)NCC(F)(F)F)c(OCC(F)F)cc21 [Example 91] |  | 10 nM |  |
| Cn1c(Nc2c(Cl)ccc(CNC(=O)CC#N)c2Cl)nc2cc(C(=O)NCC(F)(F)F)c(OCC(F)F)cc21 [Example 112] |  | 19 nM |  |
